From publication PMC10584170, “Machine learning-based phenotypic imaging to characterise the targetable biology of Plasmodium falciparum male gametocytes for the development of transmission-blocking antimalarials” (PLOS Pathogens, 2023)
Like-named read-outs stand apart in the source and are kept apart here.

How the values were obtained:
[1] = system: P. falciparum female gametocytes; assay: P. falciparum Dual Gamete Formation Assay (PfDGFA), female readout (Pfs25-positive female gametes); assay type: cell-based, Plasmodium falciparum NF54
Method in brief: (§1)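 First, day-14 P. falciparum NF54 gametocytes receive compound for 24 h at 37°C in 1% O2/3% CO2. Next, ookinete medium with Cy3 anti-Pfs25 triggers gametogenesis at 28°C and male exflagellation is imaged. Finally, after 24 h in the dark, Cy3-labelled females are imaged.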

[2] = system: P. falciparum male gametocytes; assay: P. falciparum Dual Gamete Formation Assay (PfDGFA), male readout (exflagellation); assay type: cell-based, Plasmodium falciparum NF54; settings: for Activity: hit = >50% inhibition in male or female readout in at least 3 replicates, 0 = no class assigned
Method in brief: as §1

[3] = 2µM, 24h preincubation with gametocytes prior to induction of gametogenesis, average of replicates
[4] = 2µM, 24h preincubation with gametocytes prior to induction of gametogenesis, replicate R1
[5] = 2µM, 24h preincubation with gametocytes prior to induction of gametogenesis, replicate R3
[6] = 2µM, 24h preincubation with gametocytes prior to induction of gametogenesis, replicate R4
[7] = 2µM, 24h preincubation, number of replicates with >50% inhibition in the female readout
[8] = 2µM, 24h preincubation, number of replicates with >50% inhibition in the male readout
[9] = PfDGFA at 2µM, 24h preincubation with gametocytes prior to induction of gametogenesis, replicate R1
[10] = PfDGFA at 2µM, 24h preincubation with gametocytes prior to induction of gametogenesis, replicate R3
[11] = PfDGFA at 2µM, 24h preincubation with gametocytes prior to induction of gametogenesis, replicate R4
[12] = PfDGFA at 2µM, 24h preincubation, average of replicates
[13] = PfDGFA at 2µM, 24h preincubation with gametocytes, average of replicates
[14] = PfDGFA at 2µM, 24h preincubation with gametocytes, replicate R1
[15] = PfDGFA at 2µM, 24h preincubation with gametocytes, replicate R3
[16] = PfDGFA at 2µM, 24h preincubation with gametocytes, replicate R4
[17] = 2µM, 24h preincubation, hits selected on >50% inhibition in the female readout across replicates
[18] = 2µM, 24h preincubation, hits selected on >50% inhibition in the male readout across replicates
[19] = PfDGFA at 2µM, 24h preincubation

SMILES	Average inhibition female (%) [1, 3] [%]	% inhibition female (individual replicates) R1 [1, 4] [%]	% inhibition female (individual replicates) R3 [1, 5] [%]	% inhibition female (individual replicates) R4 [1, 6] [%]	Average inhibition male (%) [2, 3] [%]	% inhibition male (individual replicates) R1 [2, 4] [%]	% inhibition male (individual replicates) R3 [2, 5] [%]	% inhibition male (individual replicates) R4 [2, 6] [%]	% inhibition female (individual replicates) R1 [1, 9] [%]	% inhibition female (individual replicates) R3 [1, 10] [%]	% inhibition female (individual replicates) R4 [1, 11] [%]	Average inhibition female (%) [1, 12] [%]	% inhibition male (individual replicates) R1 [2, 9] [%]	% inhibition male (individual replicates) R3 [2, 10] [%]	% inhibition male (individual replicates) R4 [2, 11] [%]	Average inhibition male (%) [2, 12] [%]	also measured
COc1cccc(OC)c1CN1CCC(N(C)CCCCCCCCN2CCC(OC(=O)Nc3ccccc3-c3ccccc3)CC2)CC1 [TCMDC-134684]	31.6	24.1	24.2	37.8	52.6	48.0	25.4	71.6									HitlevelF [1, 7]: 0; HitlevelM [2, 8]: 2
COc1ccc(NC(=O)[C@H](Cc2ccccc2)Nc2cc(C)nc(NCCc3ccccn3)n2)cc1.O=C(O)C(F)(F)F [TCMDC-134746]									14.8	-15.3	-1.8	1.5	-7.8	-30.0	23.6	-7.4	
Cc1cc(N[C@@H](CC(C)C)C(=O)NCc2cccs2)nc(NCCc2cccs2)n1.O=C(O)C(F)(F)F [TCMDC-134815]									9.6	-33.2	28.8	0.8	11.4	4.6	26.9	17.0	
CN1CCC(NCc2cccc(-c3nn(C)c4nc(NC5CCCC5)ncc34)c2)CC1 [TCMDC-134840]																	Average inhibition female (%) [1, 13]: 22.7%; % inhibition female (individual replicates) R1 [1, 14]: 22.9%; % inhibition female (individual replicates) R3 [1, 15]: 25.6%; % inhibition female (individual replicates) R4 [1, 16]: 7.8%; HitlevelF ([1]; number of replicates with >50% inhibition in the female readout, 2µM): 0; Average inhibition male (%) [2, 13]: 82.7%; % inhibition male (individual replicates) R1 [2, 14]: 90.3%; % inhibition male (individual replicates) R3 [2, 15]: 59.9%; % inhibition male (individual replicates) R4 [2, 16]: 92.2%; HitlevelM ([2]; number of replicates with >50% inhibition in the male readout, 2µM): 4
COc1ccc(NC(=O)[C@H](CC(C)C)Nc2cc(C)nc(NCc3ccccc3C)n2)cc1.O=C(O)C(F)(F)F [TCMDC-134909]	7.3	5.6	-14.2	28.8	9.0	15.3	-6.1	18.9									HitlevelF [1, 17]: 0; HitlevelM [2, 18]: 0; Activity [2, 19]: 0
NS(=O)(=O)c1cccc(Nc2nc(N[C@@H]3CCNC3)nc3cc[nH]c(=O)c23)c1.O=C(O)C(F)(F)F [TCMDC-135057]	3.8	4.1	1.9	9.1	-3.6	-10.0		-11.4									HitlevelF [1, 17]: 0; HitlevelM [2, 18]: 0; Activity [2, 19]: 0
COc1ccccc1CNc1ccnc(N2CC(Oc3ccc(F)cc3)C2)n1 [TCMDC-135118]									24.5	-33.1	4.4	3.5	9.0	-43.0	42.2	10.3	
CN1CCN(CC2(Nc3nccc(NCCc4cn(C)c5ccccc45)n3)CCCCC2)CC1 [TCMDC-135122]	24.1	17.1	12.9	28.9	31.6	31.6	5.8	52.9									HitlevelF [1, 7]: 0; HitlevelM [2, 8]: 1
C#C[C@H]1O[C@@H](n2cnc3c(Nc4cc(Br)cc(C(F)(F)F)c4)ncnc32)[C@H](O)[C@@H]1O [TCMDC-135185]																	Selectivity ratio F ([1]; HepG2 Tox50 versus female IC50): 10; inhibition at 2 µM ([1]; Plasmodium falciparum, 2µM, 24h preincubation with gametocytes, average of replicates, read-out: Average inhibition female (%)): 3.7%; inhibition at 2 µM ([1]; Plasmodium falciparum, 2µM, 24h preincubation with gametocytes, replicate R1, read-out: % inhibition female (individual replicates) R1): 8.3%; inhibition at 2 µM ([1]; Plasmodium falciparum, 2µM, 24h preincubation with gametocytes, replicate R2, read-out: % inhibition female (individual replicates) R2): -2.8%; inhibition at 2 µM ([1]; Plasmodium falciparum, 2µM, 24h preincubation with gametocytes, replicate R3, read-out: % inhibition female (individual replicates) R3): -10.2%; inhibition at 2 µM ([1]; Plasmodium falciparum, 2µM, 24h preincubation with gametocytes, replicate R4, read-out: % inhibition female (individual replicates) R4): 19.5%; IC50 ([1]; Plasmodium falciparum, PfDGFA, 24 h incubation with gametocytes before induction, female gamete readout, read-out: Female IC50): > 10 µM; Selectivity Ratio M ([2]; HepG2 Tox50 versus male IC50): 328.28; inhibition at 2 µM ([2]; Plasmodium falciparum, 2µM, 24h preincubation with gametocytes, average of replicates, read-out: Average inhibition male (%)): 97%; inhibition at 2 µM ([2]; Plasmodium falciparum, 2µM, 24h preincubation with gametocytes, replicate R1, read-out: % inhibition male (individual replicates) R1): 97.5%; inhibition at 2 µM ([2]; Plasmodium falciparum, 2µM, 24h preincubation with gametocytes, replicate R2, read-out: % inhibition male (individual replicates) R2): 96.8%; inhibition at 2 µM ([2]; Plasmodium falciparum, 2µM, 24h preincubation with gametocytes, replicate R3, read-out: % inhibition male (individual replicates) R3): 98%; inhibition at 2 µM ([2]; Plasmodium falciparum, 2µM, 24h preincubation with gametocytes, replicate R4, read-out: % inhibition male (individual replicates) R4): 95.6%; IC50 ([2]; Plasmodium falciparum, PfDGFA, 24 h incubation with gametocytes before induction, exflagellation readout, read-out: Male IC50): 0.3 µM
O=C(C1CCCC1)N1CCOC(CCN2CCC(c3ccccc3)CC2)(c2ccc(Cl)c(Cl)c2)C1 (stereo not drawn) [TCMDC-135327]									8.8	-20.5	17.1	-1.8	1.8	11.7	15.6	8.1	
O=C(Nc1ccc(C(=O)OCC2CCCCC2)cc1)N[C@@H](Cc1ccc(O)cc1)C(=O)NC1CCN(Cc2ccc(O)cc2)C1.O=C(O)C(F)(F)F (stereo partly drawn) [TCMDC-135357]	4.9	8.9	10.5	8.3	-19.1	-13.6	-12.1	-40.5									HitlevelF [1, 17]: 0; HitlevelM [2, 18]: 0; Activity [2, 19]: 0
C=C[C@]1(C)C[C@@H](OC(=O)CNC[C@@H](O)CN2C[C@H](c3ccnc4ccc(OC)nc34)OC2=O)[C@]2(C)[C@H](C)CC[C@]3(CCC(=O)[C@H]32)[C@@H](C)[C@@H]1O [TCMDC-135366]									-19.6	-21.7	-0.7	-7.1	-4.9	-9.1	9.5	-1.6	
COc1cc(NC(=O)c2sc(-c3ccc(Cl)cc3)cc2NC(=O)c2cccnc2)ccc1OCCN1CCCC1 [TCMDC-135397]	46.9	19.3	58.0	48.0	57.2	45.5	40.3	71.6									HitlevelF [1, 7]: 2; HitlevelM [2, 8]: 2
CCCCN(Cc1cc(Cl)c(OC)c(OC)c1)c1ccc(C(O)(C(F)(F)F)C(F)(F)F)cc1.O=C(O)C(F)(F)F [TCMDC-135446]									1.9	-6.9	1.5	-3.4	-14.8		-29.5	-22.3	
NCCCNc1nccc(N2CCc3ncnc(Nc4ccc(OCc5cccc(F)c5)c(Cl)c4)c3C2)n1 [TCMDC-135456]	13.8	10.7	-9.6	40.7	-16.9	-14.5	-30.0	-11.8									HitlevelF [1, 17]: 0; HitlevelM [2, 18]: 0; Activity [2, 19]: 0
